Assay results taken from patent US7989464B2, “mGluR1 antagonists as therapeutic agents” (Schering Corporation, priority 2004, dated 2011).
Read-outs that look alike come from different tables or passages of the source.

Target: T1, hmGluR1 receptor (Homo sapiens, UniProt Q13255)
T1 construct: expressed in transfected cells
Assay: IC50 determination: intracellular calcium mobilization (FLIPR) upon Quisqualate stimulation in CHO cells stably expressing hmGluR1
Format: cell-based
Details: against Quisqualate 1 μM (EC80)
Description: A CHO cell line stably expressing hmGluR1 receptor was established. One day prior to assay, cells were split in growth media at concentration of 50,000 cells/well in a volume of 100 μl and seeded into black clear-bottom 96-well plates. After two to six hours, when cells were well attached to the plate, growth medium was replaced with assay medium (100 μL) consisting of DMEM high glucose, supplemented with GPT (1 U/mL) and Sodium pyruvate, 1 mM. Following overnight incubation, medium was discarded and cells were loaded for 2 h with dye from the Calcium 3 Assay Reagent Kit (Molecular Devices, # R8033), prepared according to manufacturers' instructions. […] Test compounds were added 10 minutes before Quisqualate.

[1] = FLIPR calcium mobilization, read-out: IC50 Class
[2] = class symbols, read-out: mGIuR 1 IC50
[3] = FLIPR calcium mobilization, read-out: mGluR1 IC50

T1 sequence (Q13255 19-1194): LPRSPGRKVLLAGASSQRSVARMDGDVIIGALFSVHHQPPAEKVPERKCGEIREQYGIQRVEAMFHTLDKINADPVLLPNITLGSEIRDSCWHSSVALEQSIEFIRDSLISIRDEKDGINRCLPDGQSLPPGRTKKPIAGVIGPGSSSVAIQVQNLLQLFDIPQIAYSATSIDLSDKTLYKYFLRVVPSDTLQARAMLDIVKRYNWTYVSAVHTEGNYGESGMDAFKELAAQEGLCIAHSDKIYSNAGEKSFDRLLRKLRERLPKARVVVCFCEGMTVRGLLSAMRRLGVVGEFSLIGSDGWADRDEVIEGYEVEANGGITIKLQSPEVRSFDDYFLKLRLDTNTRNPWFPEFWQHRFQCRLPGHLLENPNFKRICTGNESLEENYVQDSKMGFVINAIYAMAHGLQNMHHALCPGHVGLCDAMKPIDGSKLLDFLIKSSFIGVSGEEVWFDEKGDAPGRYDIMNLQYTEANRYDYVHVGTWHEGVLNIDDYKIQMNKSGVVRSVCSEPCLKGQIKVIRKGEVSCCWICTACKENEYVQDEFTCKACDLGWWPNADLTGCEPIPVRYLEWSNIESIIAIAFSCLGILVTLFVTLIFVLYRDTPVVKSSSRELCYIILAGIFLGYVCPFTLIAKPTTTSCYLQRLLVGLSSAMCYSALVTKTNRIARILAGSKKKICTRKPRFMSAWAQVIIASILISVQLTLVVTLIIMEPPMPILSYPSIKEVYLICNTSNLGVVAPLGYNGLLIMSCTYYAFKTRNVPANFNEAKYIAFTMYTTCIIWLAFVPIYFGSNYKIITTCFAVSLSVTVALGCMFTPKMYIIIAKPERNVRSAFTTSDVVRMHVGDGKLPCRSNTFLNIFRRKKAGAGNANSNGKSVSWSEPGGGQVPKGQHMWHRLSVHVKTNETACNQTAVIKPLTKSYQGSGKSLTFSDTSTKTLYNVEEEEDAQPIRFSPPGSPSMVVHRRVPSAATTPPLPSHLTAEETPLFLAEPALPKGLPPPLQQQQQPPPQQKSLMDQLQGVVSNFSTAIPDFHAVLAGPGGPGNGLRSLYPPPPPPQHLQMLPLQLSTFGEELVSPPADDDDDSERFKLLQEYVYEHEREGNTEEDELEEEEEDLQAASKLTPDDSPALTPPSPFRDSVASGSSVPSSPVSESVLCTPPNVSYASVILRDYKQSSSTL

IC50 [1] [nM] | IC50 [2] [nM] | Compound | further results
< 50 | – | COc1ccc(-n2cnc3c(sc4nc(N)cc(N)c43)c2=O)cc1 [59H] | –
> 1000 | – | CCn1cnc2c(sc3ncnc(Nc4ccc(OC)cc4)c32)c1=O [95GM] | –
– | < 50 | Cc1ccc(-n2cnc3c(sc4nccc(N(C)C)c43)c2=O)c(F)c1 [7DW] | –
– | < 50 | Cc1ccc(-n2cnc3c(sc4nccc(N(C)C)c43)c2=O)cc1F [7DH] | IC50 [3]: 2.02 nM
150 to 1000 | – | COc1ccc(-n2cnc3c(sc4nccc(Cl)c43)c2=O)cc1 [compound 195] | –
– | 50 to 150 | CCCN(C)c1ccnc2sc3c(=O)n(-c4ccc(C)cc4)c(C)nc3c12 [113M] | –
< 50 | – | COc1ccnc2sc3c(=O)n(-c4ccc(Br)cc4)cnc3c12 [28FR] | –
< 50 | – | COCCNc1ccnc2sc3c(=O)n(-c4ccc(F)cc4)cnc3c12 [28GL] | –
< 50 | – | CN(C)c1ncnc2sc3c(=O)n(-c4ccc(C5CC5)cc4)cnc3c12 [137D] | –
< 50 | – | COc1ccc(-n2cnc3c(sc4nccc(N(C)CCO)c43)c2=O)cc1 [28HJ] | –
150 to 1000 | – | Nc1c([N+](=O)[O-])cnc2sc3c(=O)n(C4CCCCC4)cnc3c12 [compound 174] | –
– | 150 to 1000 | CNc1c(C#N)cnc2sc3c(=O)n(C4CCCCC4)cnc3c12 [compound 48] | –
< 50 | – | C=CCNc1ccnc2sc3c(=O)n(-c4ccc(OC)c(F)c4)cnc3c12 [28DT] | –
– | > 1000 | CN(C)c1ccnc2sc3c(=O)n(-c4cc[nH]n4)cnc3c12 [15W] | –
50 to 150 | – | COc1ccc(-n2cnc3c(sc4ncnc(N)c43)c2=O)cc1 [95FU] | –
< 50 | – | Cc1ccc(-n2cnc3c(sc4ncc(Br)c(NCCO)c43)c2=O)cc1 [28FN] | –
– | > 1000 | CN(C)c1ccnc2sc3c(=O)n(NC(=O)C(F)(F)F)c(C(F)(F)F)nc3c12 [65B] | –
150 to 1000 | – | C#CC(C)Nc1ccnc2sc3c(=O)n(-c4ccc(C)cc4)cnc3c12 (centres unmarked) [28EZ] | –
– | < 50 | COc1ccc(-n2cnc3c(sc4ncc(Br)c(N(C)C)c43)c2=O)cc1 [compound 151] | –
– | 150 to 1000 | Cc1ccc(-n2c(C)nc3c(sc4nccc(NC5CC5)c43)c2=O)cc1 [113J] | –
– | < 50 | CN(C)c1ccnc2sc3c(=O)n(N4CCCCC4)cnc3c12 [60A] | –
– | > 1000 | O=c1c2sc3nccc(NC4CCCCC4)c3c2ncn1-c1ccc(Cl)cc1 [28B] | –
50 to 150 | – | Cc1ccc(-n2cnc3c(sc4nccc(NC5CC5)c43)c2=O)c(F)c1 [131M] | –
> 1000 | – | Cc1ccc(-n2cnc3c(sc4nc(C(F)(F)F)nc(N)c43)c2=O)cc1 [71E] | –

IC50 [1] [nM] | IC50 [2] [nM] | Compound | further results
150 to 1000 | – | NC(=O)CNc1ccnc2sc3c(=O)n(-c4ccc(F)cc4)cnc3c12 [28GG] | –
50 to 150 | – | O=c1c2sc3ncnc(NCC4CC4)c3c2ncn1-c1ccc(Cl)cc1 [95DR] | –
< 50 | – | CN(CCO)c1ccnc2sc3c(=O)n(-c4ccc5c(c4)CCO5)cnc3c12 [28CL] | –
– | > 1000 | Cc1ccc(-n2cnc3c(sc4nc(N5CCN(C)CC5)cc(N(C)C)c43)c2=O)cc1 [59A] | –
– | < 50 | CCNc1ccnc2sc3c(=O)n(-c4ccc5ncsc5c4)cnc3c12 [131C] | –
– | 150 to 1000 | COc1ccnc2sc3c(=O)n(-c4ccc5scnc5c4)cnc3c12 [25D] | –
– | < 50 | CCCNc1ccnc2sc3c(=O)n(-c4ccc(C)cc4)cnc3c12 [28AS] | –
– | > 1000 | CN(C)c1cc(N2CCCC2)nc2sc3c(=O)n(C4CCCCC4)cnc3c12 [compound 85] | –
– | > 1000 | CN(C)c1c[n+]([O-])cc2sc3c(=O)n(-c4ccc(Cl)cc4)cnc3c12 [compound 53] | –
– | < 50 | CN(C)c1ccnc2sc3c(=O)n(C4Cc5ccccc5C4)cnc3c12 [15Y] | –
> 1000 | – | COc1ccnc2sc3c(=O)n(-c4ccc5c(c4)OCCO5)cnc3c12 [161B] | –
– | 150 to 1000 | O=c1c2sc3nc(-c4cccs4)cc(C(F)(F)F)c3c2ncn1-c1ccccc1 [P-14] | –
< 50 | – | COCCCNc1ccnc2sc3c(=O)n(-c4ccc(F)cc4)cnc3c12 [28GS] | –
< 50 | – | Cc1nc(N)c2c(n1)sc1c(=O)n(-c3ccc(Cl)cc3)cnc12 [95EV] | –
< 50 | – | CN(CCO)c1ccnc2sc3c(=O)n(-c4ccc5c(c4)OCCO5)cnc3c12 [28CF] | –
< 50 | – | CCNc1ccnc2sc3c(=O)n(-c4ccc(OC)cc4C)cnc3c12 [28BO] | –
< 50 | – | CNc1c(Cl)cnc2sc3c(=O)n(-c4ccc(OC)cc4)cnc3c12 [compound 198] | –
– | > 1000 | COc1cc(-n2cnc3c(sc4nccc(N(C)C)c43)c2=O)c(OC)cc1Cl [7V] | –
< 50 | – | CNc1cc(O)nc2sc3c(=O)n(-c4ccc(C)cc4)cnc3c12 [172B] | –
– | 50 to 150 | CCCNc1ccnc2sc3c(=O)n(C4CCCCC4)cnc3c12 [28Q] | –
> 1000 | – | Cc1ccc(-n2cnc3c(sc4nccc(N5CCOCC5)c43)c2=O)cc1 [28CW] | –
< 50 | – | C=C(C)CNc1ncnc2sc3c(=O)n(-c4ccccc4)cnc3c12 [95FH] | –
– | < 50 | CNc1c(Br)cnc2sc3c(=O)n(C4CCCCC4)cnc3c12 [compound 44] | –
< 50 | – | CNc1ccnc2sc3c(=O)n(-c4ccc5occc5c4)cnc3c12 [28BH] | –

IC50 [1] [nM] | IC50 [2] [nM] | Compound | further results
> 1000 | – | O=c1c2sc3ncnc(Nc4ccccc4)c3c2ncn1-c1ccc2c(c1)OCO2 [95GG] | –
< 50 | – | Cc1ccc(-n2cnc3c(sc4nc(S)nc(N)c43)c2=O)cc1 [71F] | –
150 to 1000 | – | COc1ccc(-n2cnc3c(sc4ncnc(Nc5nccs5)c43)c2=O)cc1 [190D] | –
– | > 1000 | O=c1c2sc3nccc(N4CCCCC4)c3c2ncn1C1CCCCC1 [28L] | –
– | 50 to 150 | CN(C)c1ccnc2sc3c(=O)n(C4CCC4)cnc3c12 [15J] | –
< 50 | – | C=CCN(C)c1ccnc2sc3c(=O)n(-c4ccc(OC)cc4)cnc3c12 [28EA] | –
< 50 | – | COCCCNc1ccnc2sc3c(=O)n(-c4ccc(Br)cc4)cnc3c12 [28GR] | –
< 50 | – | C#CCNc1ccnc2sc3c(=O)n(-c4ccc(OC)cc4)cnc3c12 [28DQ] | –
– | > 1000 | CC(=O)Nc1ccnc2sc3c(=O)n(C4CCCCC4)cnc3c12 [73B] | –
– | 150 to 1000 | COc1ccc(-c2c(C(C)=O)c(C)nc3sc4c(=O)n(-c5ccc(Cl)cc5)cnc4c23)cc1 [P-11] | –
< 50 | – | O=c1c2sc3nccc(NC4CC4)c3c2ncn1-c1ccc2c(c1)CCO2 [28CE] | –
< 50 | – | C#CCNc1ncnc2sc3c(=O)n(-c4ccc(Cl)cc4)cnc3c12 [95EG] | –
< 50 | – | Cc1ccc(-n2cnc3c(sc4ncnc(N(C)C5CC5)c43)c2=O)cc1 [95DZ] | –
– | < 50 | C=CCNc1ccnc2sc3c(=O)n(-c4ccc(C)cc4)cnc3c12 [72I] | –
– | 50 to 150 | Cc1cc(N(C)C)c2c(n1)sc1c(=O)n(-c3ccc4c(c3)CCO4)cnc12 [7CN] | –
< 50 | – | CN(C)c1ccnc2sc3c(=O)n(-c4cccc(F)c4)cnc3c12 [28CP] | –
– | 50 to 150 | CN(C)c1cc(C#N)nc2sc3c(=O)n(C4CCCCC4)cnc3c12 [compound 84] | –
< 50 | – | CCN(C)c1ccnc2sc3c(=O)n(-c4ccc(OC)c(F)c4)cnc3c12 [28IA] | –
< 50 | – | O=c1c2sc3nccc(C4CC4)c3c2ncn1-c1ccc(Cl)cc1 [compound 187] | –
150 to 1000 | – | Cc1ccc(-n2cnc3c(sc4nccc(NC(C)(C)C)c43)c2=O)cc1 [28EO] | –
> 1000 | – | CCOc1cnnc2sc3c(=O)n(-c4ccc(C)cc4)cnc3c12 [161A] | –
> 1000 | – | COCCNc1ncnc2sc3c(=O)n(CCOC)cnc3c12 [95DX] | –
– | < 50 | Cc1nc2c(sc3nccc(N(C)C)c32)c(=O)n1-c1ccccc1 [113B] | –
> 1000 | – | O=c1c2sc3nccc(Oc4ccccc4)c3c2ncn1-c1ccc(Cl)cc1 [compound 176] | –

IC50 [1] [nM] | IC50 [2] [nM] | Compound | further results
– | < 50 | CN(C)c1ccnc2sc3c(=O)n(-c4ccc5[nH]ccc5c4)cnc3c12 [7AM] | –
< 50 | – | CCc1ccnc2sc3c(=O)n(-c4ccc(Cl)cc4)cnc3c12 [29K] | –
150 to 1000 | – | CN(C)c1cccc2sc3c(=O)n(-c4ccc(F)cc4)cnc3c12 [103N] | –
< 50 | – | CCNc1ccnc2sc3c(=O)n(-c4ccc5c(c4)CCO5)cnc3c12 [28BQ] | IC50 [3]: 1.57 nM
– | < 50 | CCN(C)c1ncnc2sc3c(=O)n(-c4ccc(C(F)(F)F)cc4)cnc3c12 [95Y] | –
– | < 50 | Cc1cc(N(C)C)c2c(n1)sc1c(=O)n(C3CCCCC3)cnc12 [7CZ] | –
150 to 1000 | – | C=C(C)CNc1ccnc2sc3c(=O)n(-c4ccc5c(c4)OCO5)cnc3c12 [28FG] | –
– | < 50 | Cc1ccc(-n2cnc3c(sc4nccc(N(C)C)c43)c2=O)cc1 [7BF] | –
– | < 50 | Cc1ccc(-n2cnc3c(sc4nccc(N(C)C)c43)c2=O)cc1Cl [7DG] | –
150 to 1000 | – | C#CCNc1ncnc2sc3c(=O)n(-c4ccc5ncsc5c4)cnc3c12 [95EM] | –
– | > 1000 | O=c1c2sc3nccc(NC4Cc5ccccc5C4)c3c2ncn1C1CCCCC1 [72D] | –
– | > 1000 | O=C(Nc1ccnc2sc3c(=O)n(C4CCCCC4)cnc3c12)c1ccc(Cl)cc1 [73G] | –
– | < 50 | COc1cc(OC)cc(-n2cnc3c(sc4nccc(N(C)C)c43)c2=O)c1 [7AX] | –
50 to 150 | – | CN(C)c1ccnc2sc3c(=O)n(-c4ccc(C5CC5)cc4F)cnc3c12 [137F] | –
150 to 1000 | – | COc1ccnc2sc3c(=O)n(-c4ccc(F)cc4)cnc3c12 [compound 180] | –
– | > 1000 | CN(C)c1ccnc2sc3c(=O)n(C4CCC(C(C)(C)C)CC4)cnc3c12 (centres unmarked) [15M] | –
< 50 | – | CNc1ccnc2sc3c(=O)n(-c4ccc(OC)cc4F)cnc3c12 [28BK] | –
– | > 1000 | CN(C)c1ccnc2sc3c(=O)n(N)c(-c4ccccc4)nc3c12 [65E] | –
< 50 | – | C=CCNc1ccnc2sc3c(=O)n(-c4ccc(F)cc4)cnc3c12 [28EC] | –
– | < 50 | COc1ccc(-n2cnc3c(sc4nccc(N(C)C)c43)c2=O)cc1F [7AP] | –
– | < 50 | Cc1ccc(-n2cnc3c(sc4nccc(NC[C@H](C)O)c43)c2=O)cc1 [28BB] | –
